According to the supplement of paper PMC10307832:

What was measured:
Experiment in all cases: relative viability (nuclei count vs DMSO), 5 days (fraction); higher = more cells survive
HCC-78 = system: HCC-78
How it was run: (§1)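 Medians of duplicate plates are given as relative viability. That measure is the nuclei count in treated wells divided by the count in vehicle wells. Counts were taken on 4× images of lung cancer cell lines in 1536-well plates, 5 days after pin-tool dosing the day after seeding with one drug alone or a fixed anchor-drug dose plus five library-drug doses (not always all listed) in √10 steps.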

COR-L23 = system: COR-L23
How it was run: as §1

HCC-366 = system: HCC-366
How it was run: as §1

ChaGo-K-1 = system: ChaGo-K-1
How it was run: as §1

NCI-H650 = system: NCI-H650
How it was run: as §1

NCI-H2009 = system: NCI-H2009
How it was run: as §1

HCC-15 = system: HCC-15
How it was run: as §1

201T = system: 201T
How it was run: as §1

A-427 = system: A-427
How it was run: as §1

NCI-H460 = system: NCI-H460
How it was run: as §1

NCI-H2126 = system: NCI-H2126
How it was run: as §1

LCLC-103H = system: LCLC-103H
How it was run: as §1

NCI-H1734 = system: NCI-H1734
How it was run: as §1

SW 1573 = system: SW 1573
How it was run: as §1

NCI-H1993 = system: NCI-H1993
How it was run: as §1

NCI-H1648 = system: NCI-H1648
How it was run: as §1

LOU-NH91 = system: LOU-NH91
How it was run: as §1

HARA = system: HARA
How it was run: as §1

LCLC-97TM1 = system: LCLC-97TM1
How it was run: as §1

NCI-H441 = system: NCI-H441
How it was run: as §1

NCI-H1650 = system: NCI-H1650
How it was run: as §1

NCI-H2023 = system: NCI-H2023
How it was run: as §1

EBC-1 = system: EBC-1
How it was run: as §1

RERF-LC-KJ = system: RERF-LC-KJ
How it was run: as §1

HCC-44 = system: HCC-44
How it was run: as §1

CCCCCCCCCCCC1=C(O)C(=O)C=C(O)C1=O [Embelin] + O=C(c1cc(Cc2n[nH]c(=O)c3ccccc23)ccc1F)N1CCN(C(=O)C2CC2)CC1 [Olaparib] (partner 8 µM)
relative viability (HCC-78; first compound 0.08 µM): 0.953
relative viability (HCC-78; first compound 0.8 µM): 0.78
relative viability (HCC-78; first compound 2.53 µM): 0.961
relative viability (HCC-78; first compound 8 µM): 0.778
relative viability (COR-L23; first compound 0.08 µM): 0.373
relative viability (COR-L23; first compound 0.8 µM): 0.352
relative viability (COR-L23; first compound 2.53 µM): 0.348
relative viability (COR-L23; first compound 8 µM): 0.346
relative viability (HCC-366; first compound 0.08 µM): 0.335
relative viability (HCC-366; first compound 0.8 µM): 0.369
relative viability (HCC-366; first compound 2.53 µM): 0.372
relative viability (HCC-366; first compound 8 µM): 0.423
relative viability (ChaGo-K-1; first compound 0.08 µM): 0.464
relative viability (ChaGo-K-1; first compound 0.8 µM): 0.319
relative viability (ChaGo-K-1; first compound 2.53 µM): 0.441
relative viability (ChaGo-K-1; first compound 8 µM): 0.45
relative viability (NCI-H650; first compound 0.08 µM): 0.385
relative viability (NCI-H650; first compound 0.8 µM): 0.407
relative viability (NCI-H650; first compound 2.53 µM): 0.371
relative viability (NCI-H650; first compound 8 µM): 0.381
relative viability (NCI-H2009; first compound 0.08 µM): 0.693
relative viability (NCI-H2009; first compound 0.8 µM): 0.821
relative viability (NCI-H2009; first compound 2.53 µM): 0.71
relative viability (NCI-H2009; first compound 8 µM): 0.696
relative viability (HCC-15; first compound 0.08 µM): 0.689
relative viability (HCC-15; first compound 0.8 µM): 0.727
relative viability (HCC-15; first compound 2.53 µM): 0.823
relative viability (HCC-15; first compound 8 µM): 0.73
relative viability (201T; first compound 0.08 µM): 0.826
relative viability (201T; first compound 0.8 µM): 0.875
relative viability (201T; first compound 2.53 µM): 0.853
relative viability (201T; first compound 8 µM): 0.902
relative viability (A-427; first compound 0.08 µM): 0.765
relative viability (A-427; first compound 0.8 µM): 0.872
relative viability (A-427; first compound 2.53 µM): 0.792
relative viability (A-427; first compound 8 µM): 0.524
relative viability (NCI-H460; first compound 0.08 µM): 0.45
relative viability (NCI-H460; first compound 0.8 µM): 0.431
relative viability (NCI-H460; first compound 2.53 µM): 0.421
relative viability (NCI-H460; first compound 8 µM): 0.468
relative viability (NCI-H2126; first compound 0.08 µM): 0.901
relative viability (NCI-H2126; first compound 0.8 µM): 0.954
relative viability (NCI-H2126; first compound 2.53 µM): 0.936
relative viability (NCI-H2126; first compound 8 µM): 0.892
relative viability (LCLC-103H; first compound 0.08 µM): 0.762
relative viability (LCLC-103H; first compound 0.8 µM): 0.796
relative viability (LCLC-103H; first compound 2.53 µM): 0.802
relative viability (LCLC-103H; first compound 8 µM): 0.764
relative viability (NCI-H1734; first compound 0.08 µM): 0.623
relative viability (NCI-H1734; first compound 0.8 µM): 0.568
relative viability (NCI-H1734; first compound 2.53 µM): 0.651
relative viability (NCI-H1734; first compound 8 µM): 0.644
relative viability (SW 1573; first compound 0.08 µM): 0.545
relative viability (SW 1573; first compound 0.8 µM): 0.561
relative viability (SW 1573; first compound 2.53 µM): 0.443
relative viability (SW 1573; first compound 8 µM): 0.47
relative viability (NCI-H1993; first compound 0.08 µM): 1.16
relative viability (NCI-H1993; first compound 0.8 µM): 1.07
relative viability (NCI-H1993; first compound 2.53 µM): 1.21
relative viability (NCI-H1993; first compound 8 µM): 1.6
relative viability (NCI-H1648; first compound 0.08 µM): 1
relative viability (NCI-H1648; first compound 0.8 µM): 0.904
relative viability (NCI-H1648; first compound 2.53 µM): 1.14
relative viability (NCI-H1648; first compound 8 µM): 1.21
relative viability (LOU-NH91; first compound 0.08 µM): 0.931
relative viability (LOU-NH91; first compound 0.8 µM): 1.01
relative viability (LOU-NH91; first compound 2.53 µM): 0.988
relative viability (LOU-NH91; first compound 8 µM): 0.924
relative viability (HARA; first compound 0.08 µM): 0.85
relative viability (HARA; first compound 0.8 µM): 0.734
relative viability (HARA; first compound 2.53 µM): 1.12
relative viability (HARA; first compound 8 µM): 0.763
relative viability (LCLC-97TM1; first compound 0.08 µM): 0.38
relative viability (LCLC-97TM1; first compound 0.8 µM): 0.462
relative viability (LCLC-97TM1; first compound 2.53 µM): 0.445
relative viability (LCLC-97TM1; first compound 8 µM): 0.45
relative viability (NCI-H441; first compound 0.08 µM): 0.624
relative viability (NCI-H441; first compound 0.8 µM): 0.627
relative viability (NCI-H441; first compound 2.53 µM): 0.521
relative viability (NCI-H441; first compound 8 µM): 0.618
relative viability (NCI-H1650; first compound 0.08 µM): 0.775
relative viability (NCI-H1650; first compound 0.8 µM): 0.85
relative viability (NCI-H1650; first compound 2.53 µM): 1.02
relative viability (NCI-H1650; first compound 8 µM): 0.817
relative viability (NCI-H2023; first compound 0.08 µM): 0.432
relative viability (NCI-H2023; first compound 0.8 µM): 0.455
relative viability (NCI-H2023; first compound 2.53 µM): 0.509
relative viability (NCI-H2023; first compound 8 µM): 0.229
relative viability (EBC-1; first compound 0.08 µM): 0.699
relative viability (EBC-1; first compound 0.8 µM): 0.828
relative viability (EBC-1; first compound 2.53 µM): 0.703
relative viability (EBC-1; first compound 8 µM): 0.684
relative viability (RERF-LC-KJ; first compound 0.08 µM): 0.846
relative viability (RERF-LC-KJ; first compound 0.8 µM): 0.956
relative viability (RERF-LC-KJ; first compound 2.53 µM): 1.02
relative viability (RERF-LC-KJ; first compound 8 µM): 0.48
relative viability (HCC-44; first compound 0.08 µM): 0.989
relative viability (HCC-44; first compound 0.8 µM): 0.959
relative viability (HCC-44; first compound 2.53 µM): 1.01
relative viability (HCC-44; first compound 8 µM): 1
